In US11147272B2, “Pyridone compounds and agricultural and horticultural fungicides comprising the same as active ingredients” (MITSUI CHEMICALS AGRO, INC., priority 2017, dated 2021):

Key:
Magnaporthe grisea = experiment: whole plant or invertebrate; type: in vivo; conditions: 250 ppm drug solution sprayed on test plant
Alternaia brassicicola = experiment: Test Example C: Alternaria sooty spot on cabbage; type: in vivo; conditions: 250 ppm drug solution sprayed on test plant
From the text: Seeds of a test plant (cabbage variety: Shikidori) were planted and cultivated until the cotyledons extended.
<Control Value> Control value=100{1−(n/3)}

Puccinia recondita = experiment: Test Example E: Brown rust on wheat; type: in vivo; conditions: 250 ppm drug solution sprayed on test plant
Phytophthora infestans = experiment: whole plant or invertebrate; type: in vivo; conditions: 250 ppm drug solution sprayed on test plant
Botrytis cinerea = experiment: Test Example B: Gray mold on tomato; conditions: 250 ppm drug solution sprayed on test plant
Plasmopara viticola = experiment: Test Example G: Downy mildew on vine; conditions: 250 ppm drug solution sprayed (2.5 ml/pot), grape Neomuscat, 7 to 10 days after inoculation
[1] = test system: Colletotrichum orbiculare; experiment: Test Example H: Anthracnose on cucumber; conditions: 250 ppm drug solution sprayed (2.5 ml/pot), cucumber Sagami Hanjiro, 6 to 10 days after inoculation
[2] = test system: Blumeria graminis f. sp. hordei; experiment: Test Example D: Powdery mildew on barley; conditions: 250 ppm drug solution sprayed on test plant

| SMILES | Test A control value (Magnaporthe grisea) | Test C control value (Alternaia brassicicola) | Test E control value (Puccinia recondita) | Test F control value (Phytophthora infestans) | Test B control value (Botrytis cinerea) | Test G control value (Plasmopara viticola) | Test H control value [1] | Test D control value [2] |
| --- | --- | --- | --- | --- | --- | --- | --- | --- |
| CCn1c(-c2c(F)cc(OC)cc2F)c(C(C)(CC)OC)cc(Br)c1=O (centres unmarked) [compound 486] | H (more than 50% control value) | H (more than 50% control value) | H (more than 50% control value) | L (50% or less control value) | H (more than 50% control value) | L (50% or less control value) | H (more than 50% control value) | H (more than 50% control value) |
| COc1cc(F)c(-c2c(C(C)(O)C(C)C)cc(Cl)c(=O)n2C)c(F)c1 (centres unmarked) [compound 487] | H (more than 50% control value) | H (more than 50% control value) | H (more than 50% control value) | H (more than 50% control value) | H (more than 50% control value) | H (more than 50% control value) | H (more than 50% control value) | H (more than 50% control value) |
| COc1cc(F)c(-c2c(C(C)(OC)C(C)C)cc(Cl)c(=O)n2C)c(F)c1 (centres unmarked) [compound 488] | H (more than 50% control value) | H (more than 50% control value) | H (more than 50% control value) | L (50% or less control value) | H (more than 50% control value) | L (50% or less control value) | H (more than 50% control value) | L (50% or less control value) |
| CCOC(C)(c1cc(Cl)c(=O)n(C)c1-c1c(F)cc(OC)cc1F)C(C)C (centres unmarked) [compound 489] | H (more than 50% control value) | H (more than 50% control value) | H (more than 50% control value) | L (50% or less control value) | H (more than 50% control value) | L (50% or less control value) | H (more than 50% control value) | H (more than 50% control value) |
| CCC(O)c1cc(Cl)c(=O)n(C)c1-c1c(F)cc(F)cc1F (centres unmarked) [compound 490] | L (50% or less control value) | L (50% or less control value) | H (more than 50% control value) | L (50% or less control value) | L (50% or less control value) | H (more than 50% control value) | L (50% or less control value) | L (50% or less control value) |
| CCCc1ccc(=O)n(CC(F)F)c1-c1c(F)cccc1F [compound 491] | L (50% or less control value) | H (more than 50% control value) | H (more than 50% control value) | L (50% or less control value) | H (more than 50% control value) | L (50% or less control value) | L (50% or less control value) | H (more than 50% control value) |
| CCCc1cc(Cl)c(=O)n(CC(F)F)c1-c1c(F)cccc1F [compound 492] | H (more than 50% control value) | H (more than 50% control value) | H (more than 50% control value) | L (50% or less control value) | H (more than 50% control value) | H (more than 50% control value) | H (more than 50% control value) | H (more than 50% control value) |
